In patent US20250032437A1, “D-Serine Inhibits Neuroinflammation Due To A Brain Injury” (Florida State University Research Foundation, Inc., priority 2019, published 2025):

Tested on: entorhinal cortex (neurons, astrocytes, microglia) of animals made epileptic with a chemo-convulsant
Assay: D-serine injected into the entorhinal area in an animal model of Temporal Lobe Epilepsy; neurons, astrocytes and microglia identified with fluorescent-tagged antibodies
Assay type: in vivo
Protocol: These cells cause inflammation in brain tissue by releasing cytokines. These neuroinflammatory cell types were identified using fluorescent-tagged antibodies first in control animals and then in animals that were made epileptic using a well-established animal model of Temporal Lobe Epilepsy. […] In a separate sample of animals, D-serine was injected into the entorhinal area prior to making them epileptic with a chemo-convulsant and immediately after administration of the chemo-convulsant.

[1] = D-serine injected into the entorhinal area, FIG. 2 vs FIG. 3

SMILES: N[C@H](CO)C(=O)O [D-serine]
- development of epilepsy after chemo-convulsant (D-serine injected into the entorhinal area prior to and immediately after administration of the chemo-convulsant): did not become epileptic
- astrocytes in the entorhinal region (GFAP) [1]: fewer astrocytes
- neurons in the entorhinal cortex (NeuN) compared with the epileptic animals [1]: significant rescue of neurons
- infiltration of microglia to the entorhinal region (OX42) (D-serine injected into the entorhinal area, FIG. 7 vs FIG. 8): significantly reduced
